Assays:
[1] = biological target: T1, human V1a receptor (Homo sapiens, UniProt P37288); assay: Cellular in vitro assay for determining vasopressin receptor activity, V1a receptor cell line (CHO, aequorin luminescence); format: cell-based; conditions: for IC50: CHO cell line transfected with human V1a receptor, [Arg]-vasopressin at EC50 concentration, read-out: IC50 hV1a; for ratio IC50 hV2/hV1a: selectivity ratio IC50 hV2 / IC50 hV1a
T1 construct: expressed in transfected cells; host or cells: CHO K1 (ATCC), also stably transfected with a modified aequorin
Summary of the method: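 Cells were plated the day before in medium containing 5 μg/ml coelenterazine and kept at 37° C. Compounds at various concentrations were then added for 10 minutes. Next, [Arg]-vasopressin at EC50 was applied and light output recorded at once, yielding IC50.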

[2] = biological target: T2, human V2 receptor (Homo sapiens, UniProt P30518); assay: Cellular in vitro assay for determining vasopressin receptor activity, V2 receptor cell line (CHO, CRE-luciferase); format: cell-based; conditions: CHO cell line transfected with human V2 receptor; [Arg8]-vasopressin at EC50 concentration, 3 hours; read-out: IC50 hV2
T2 construct: expressed in transfected cells; host or cells: CHO K1 (ATCC) expressing firefly luciferase under a CRE-responsive promoter
T2 sequence (P30518 whole entry): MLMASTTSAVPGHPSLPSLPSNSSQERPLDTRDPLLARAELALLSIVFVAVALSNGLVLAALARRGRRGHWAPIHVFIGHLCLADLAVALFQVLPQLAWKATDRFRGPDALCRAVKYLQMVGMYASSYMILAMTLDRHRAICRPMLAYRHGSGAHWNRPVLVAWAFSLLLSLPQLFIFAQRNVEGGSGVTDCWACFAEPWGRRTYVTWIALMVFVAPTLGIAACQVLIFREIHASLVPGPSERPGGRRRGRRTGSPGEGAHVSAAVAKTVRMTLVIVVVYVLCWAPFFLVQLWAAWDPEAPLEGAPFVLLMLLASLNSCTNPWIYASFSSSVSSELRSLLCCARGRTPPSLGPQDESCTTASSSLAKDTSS

T1 sequence (P37288 whole entry): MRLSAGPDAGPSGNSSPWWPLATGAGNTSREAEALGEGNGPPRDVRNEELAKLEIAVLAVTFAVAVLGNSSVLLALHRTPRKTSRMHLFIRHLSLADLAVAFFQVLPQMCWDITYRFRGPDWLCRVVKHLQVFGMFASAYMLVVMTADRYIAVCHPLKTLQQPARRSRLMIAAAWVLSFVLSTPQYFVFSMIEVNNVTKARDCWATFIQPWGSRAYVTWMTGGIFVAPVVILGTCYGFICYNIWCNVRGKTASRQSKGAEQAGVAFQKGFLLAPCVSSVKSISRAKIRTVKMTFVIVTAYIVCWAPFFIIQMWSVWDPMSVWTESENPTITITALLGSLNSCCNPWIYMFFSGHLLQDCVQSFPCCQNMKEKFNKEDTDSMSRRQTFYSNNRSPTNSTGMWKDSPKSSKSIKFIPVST

IC50 [1] [nM]	ratio IC50 hV2/hV1a [1]	IC50 [2] [nM]	Compound
41	28.7	1170	O=C(Cn1cncn1)Nc1ncccc1-n1cnc(Cn2nc(-c3ccc(Cl)cc3)n(C[C@H](O)C(F)(F)F)c2=O)n1 [Example 88, N-{3-[3-({3-(4-Chlorophenyl)-5-oxo-4-[(2S)-3,3,3-trifluoro-2-hydroxypropyl]-4,5-dihydro-1H-1,2,4-triazol-1-yl}methyl)-1H-1,2,4-triazol-1-yl]pyridin-2-yl}-2-(1H-1,2,4-triazol-1-yl)acetamide]
36	51.4	1850	O=C(Cc1cccnc1)Nc1ncccc1-n1cnc(Cn2nc(-c3ccc(Cl)cc3)n(C[C@H](O)C(F)(F)F)c2=O)n1 [Example 89]
90	17.2	1550	CN1CC(C(=O)Nc2ncccc2-n2cnc(Cn3nc(-c4ccc(Cl)cc4)n(C[C@H](O)C(F)(F)F)c3=O)n2)CC1=O (stereo partly drawn) [Example 90]
195	6.4	1250	O=C(CN1CCCC1=O)Nc1ncccc1-n1cnc(Cn2nc(-c3ccc(Cl)cc3)n(C[C@H](O)C(F)(F)F)c2=O)n1 [Example 91]
240	7.3	1750	Cc1cnn(CC(=O)Nc2ncccc2-n2cnc(Cn3nc(-c4ccc(Cl)cc4)n(C[C@H](O)C(F)(F)F)c3=O)n2)c1 [Example 92]
7.65	66.0	505	O=C(Nc1ncccc1-n1cnc(Cn2nc(-c3ccc(Cl)cc3)n(C[C@H](O)C(F)(F)F)c2=O)n1)c1cncc(F)c1 [Example 93]
16	140.6	2250	Cc1nccn1CC(=O)Nc1ncccc1-n1cnc(Cn2nc(-c3ccc(Cl)cc3)n(C[C@H](O)C(F)(F)F)c2=O)n1 [Example 94]
92	23.4	2150	O=C(Nc1ncccc1-n1cnc(Cn2nc(-c3ccc(Cl)cc3)n(C[C@H](O)C(F)(F)F)c2=O)n1)c1ccccc1 [Example 95]
2.1	266.7	560	CNCC(=O)Nc1ncccc1-n1cnc(Cn2nc(-c3ccc(Cl)cc3)n(C[C@H](O)C(F)(F)F)c2=O)n1 [Example 96]
135	15.2	2050	O=C(Cc1ccccc1)Nc1ncccc1-n1cnc(Cn2nc(-c3ccc(Cl)cc3)n(C[C@H](O)C(F)(F)F)c2=O)n1 [Example 97]
125	7.6	945	CC1(C(=O)Nc2ncccc2-n2cnc(Cn3nc(-c4ccc(Cl)cc4)n(C[C@H](O)C(F)(F)F)c3=O)n2)CCCO1 (stereo partly drawn) [Example 98]
40	100.0	4000	CC1CC(=O)NC1C(=O)Nc1ncccc1-n1cnc(Cn2nc(-c3ccc(Cl)cc3)n(C[C@H](O)C(F)(F)F)c2=O)n1 (stereo partly drawn) [Example 99]
26.5	40.2	1060	O=C(Nc1ncccc1-n1cnc(Cn2nc(-c3ccc(Cl)cc3)n(C[C@H](O)C(F)(F)F)c2=O)n1)c1csnn1 [Example 100]
110	17.7	1950	O=C(Nc1ncccc1-n1cnc(Cn2nc(-c3ccc(Cl)cc3)n(C[C@H](O)C(F)(F)F)c2=O)n1)c1ccccc1O [Example 101]
80	14.4	1150	Cc1cc(C(=O)Nc2ncccc2-n2cnc(Cn3nc(-c4ccc(Cl)cc4)n(C[C@H](O)C(F)(F)F)c3=O)n2)on1 [Example 102]
155	15.5	2400	O=C(CN1CCCCC1)Nc1ncccc1-n1cnc(Cn2nc(-c3ccc(Cl)cc3)n(C[C@H](O)C(F)(F)F)c2=O)n1 [Example 103]

IC50 [1] [nM]	ratio IC50 hV2/hV1a [1]	IC50 [2] [nM]	Compound
8.25	193.9	1600	O=C(Nc1ncccc1-n1cnc(Cn2nc(-c3ccc(Cl)cc3)n(C[C@H](O)C(F)(F)F)c2=O)n1)c1cnccn1 [Example 104]
130	8.5	1100	O=C(CC1CCCCC1)Nc1ncccc1-n1cnc(Cn2nc(-c3ccc(Cl)cc3)n(C[C@H](O)C(F)(F)F)c2=O)n1 [Example 105]
2.35	510.6	1200	Cn1nccc1C(=O)Nc1ncccc1-n1cnc(Cn2nc(-c3ccc(Cl)cc3)n(C[C@H](O)C(F)(F)F)c2=O)n1 [Example 106]
5.65	125.7	710	Cc1cccc(C(=O)Nc2ncccc2-n2cnc(Cn3nc(-c4ccc(Cl)cc4)n(C[C@H](O)C(F)(F)F)c3=O)n2)n1 [Example 107]
31.5	22.2	700	Cc1nc(C(=O)Nc2ncccc2-n2cnc(Cn3nc(-c4ccc(Cl)cc4)n(C[C@H](O)C(F)(F)F)c3=O)n2)no1 [Example 108]
115	58.7	6750	CN1CCC(C(=O)Nc2ncccc2-n2cnc(Cn3nc(-c4ccc(Cl)cc4)n(C[C@H](O)C(F)(F)F)c3=O)n2)CC1 [Example 109]
6.3	83.3	525	CCn1ccc(C(=O)Nc2ncccc2-n2cnc(Cn3nc(-c4ccc(Cl)cc4)n(C[C@H](O)C(F)(F)F)c3=O)n2)n1 [Example 110]
4.7	276.6	1300	CCn1nccc1C(=O)Nc1ncccc1-n1cnc(Cn2nc(-c3ccc(Cl)cc3)n(C[C@H](O)C(F)(F)F)c2=O)n1 [Example 111]
170	388.2	66000	CCn1cc(C(=O)Nc2ncccc2-n2cnc(Cn3nc(-c4ccc(Cl)cc4)n(C[C@H](O)C(F)(F)F)c3=O)n2)cn1 [Example 112]
91	9.2	835	CC1(C(=O)Nc2ncccc2-n2cnc(Cn3nc(-c4ccc(Cl)cc4)n(C[C@H](O)C(F)(F)F)c3=O)n2)CCCCC1 [Example 113]
19	12.6	240	CC1CC1C(=O)Nc1ncccc1-n1cnc(Cn2nc(-c3ccc(Cl)cc3)n(C[C@H](O)C(F)(F)F)c2=O)n1 (stereo partly drawn) [Example 114]
31	15.8	490	O=C(Nc1ncccc1-n1cnc(Cn2nc(-c3ccc(Cl)cc3)n(C[C@H](O)C(F)(F)F)c2=O)n1)C1CCC1 [Example 115]
78	14.7	1150	O=C(Nc1ncccc1-n1cnc(Cn2nc(-c3ccc(Cl)cc3)n(C[C@H](O)C(F)(F)F)c2=O)n1)c1ccccc1F [Example 116]
65.5	16.0	1050	CC(C)(C)C(=O)Nc1ncccc1-n1cnc(Cn2nc(-c3ccc(Cl)cc3)n(C[C@H](O)C(F)(F)F)c2=O)n1 [Example 117]
140	8.2	1150	CC1(C(=O)Nc2ncccc2-n2cnc(Cn3nc(-c4ccc(Cl)cc4)n(C[C@H](O)C(F)(F)F)c3=O)n2)COC1 [Example 118]
35	7.7	270	CC[C@H](C)C(=O)Nc1ncccc1-n1cnc(Cn2nc(-c3ccc(Cl)cc3)n(C[C@H](O)C(F)(F)F)c2=O)n1 [Example 119]

From US11173151B2, “Substituted triazole derivatives and uses thereof” (BAYER AKTIENGESELLSCHAFT, priority 2017, dated 2021)
